Measured values: US20090061022A1, “Pharmaceutical composition comprising arsenite for the treatment of malignancy” (priority 2004, published 2009)
Several values for one entry are separate records, joined by “and”; a condition that tells them apart may be missing. Equal entries are not always repeated.

Columns and labels:
[1] = tested on: panel of forty-one (41) human cancer cell lines; test: Cytotoxic activity, panel of forty-one (41) human cancer cell lines
Excerpt: In a next study, the cytotoxic activity of sodium meta-arsenite was head-to-head compared with arsenic trioxide in panels loaded with 41 cancer cell lines from ten human cancers.

[2] = rats, orally; cited from earlier work
[3] = tested on: RXF 944LX; test: Dose finding study in human renal cancer model RXF 944LX in nude mice (i.p. days 0, 7, 14); details: for BW loss % (day) / Drug-related deaths / Rating / SGD (specific growth delay) / T/C %: days 0, 7, 14
Excerpt: In a dose finding study, the potential anticancer activity of sodium meta-arsenite and arsenic acid sodium salt versus arsenic trioxide was examined in the human renal cancer model, RXF 944LX.
Cancer fragments (1-2 mm in diameter), obtained from xenografts in serial passage in nude mice, were implanted subcutaneously (S.C.) in a flank of male NRMI nude mice (one fragment per mouse). Mice with appropriate cancer volumes (5-7 mm in diameter) were randomly distributed to treatment and control groups (4 mice/group). The start of treatment was day 0. Cancer volume and body weights were measured at least twice per week.
1) Sodium meta-arsenite (3, 10, 30 mg/kg/day), 2) Arsenic acid sodium salt (3, 10, 30 mg/kg/day) and 3) Arsenic trioxide (3, 10, 30 mg/kg/day) were administered intraperitoneally (i.p.) once daily on days 0, 7 and 14.
Stock solution of sodium meta-arsenite and arsenic acid sodium salt (3 mg/ml) were prepared in 5% (w/v) dextrose solution, respectively, to minimize acute arsenic toxicity. For arsenic trioxide, 9 mg of arsenic trioxide was dissolved in 1M NaOH (75 μl) followed by mixing with sterile aqua injectabilia (2175 μl) and sterile 20% (w/v) dextrose in water (500 μl). Further dilution to the desired concentration was done with a 5% dextrose solution to give a final concentration of 3 mg/ml.
The cancer volume of each animal was determined by two-dimensional measurement using calipers. The volume was calculated according to the formula: (a×b^2)×0.5; wherein a and b represent two perpendicular diameters in which a (length) is the larger diameter and b (width) the smaller diameter.
Relative cancer volumes (RCV) were calculated for each individual cancer by dividing the cancer volume on day X by the cancer volume on day 0 multiplied by 100%. The cancer volume of a treatment group was expressed as the median RCV of all mice of the group. Median RCV values were used for drawing growth curves and treatment evaluation. Optimal cancer growth inhibition at a particular day within the treatment period was calculated from the median RCV values of the treated (T) versus the controlled (C) group multiplied by 100%. A T/C value<50% was considered as anti-cancer activity.

[4] = cold water; cited from earlier work
[5] = tested on: ALL-SCID 4; test: Anticancer activity in human leukemia model ALL-SCID 4; details: for BW loss % (day) / Drug-related deaths / T/C %: days 25-35
Excerpt: Anticancer activity of the sodium meta-arsenite and arsenic trioxide against two human paediatric acute lymphoblastic leukemia (ALL) models in vivo, ALL-SCID 4 was investigated to compare.
Male NOD/SCID mice (deficient in T and B lymphocytes, NK cells and functional macrophages) were transplanted s.c. on day 0 with fragments of ALL-SCID 4 cancers, which were obtained from mice used for routine passage of the cancers. Mice were randomized to the scheduled treatment groups.
Sodium meta-arsenite was administered orally at 2, 4 and 6 mg/kg/day (⅓ MTD, ⅔ MTD and MTD) once every day from day 34-54 after transplantation. The vehicle control (5% glucose in water) was administered i.p. (10 ml/kg).
Sodium meta-arsenite was dissolved in ready-to-use sterile infusion (5% (w/v) glucose in aqua injectabila). Arsenic trioxide was dissolved in 25 mM NaOH then dissolved in 5% glucose in aqua injectabila. The solutions were prepared freshly on the day of therapy for each administration.

[6] = panel of 41 human cancer cell lines
[7] = 10 mg/kg i.p., listed as arsenic trioxide

arsenic trioxide
activity in panel of 41 ([1]; 0.1 μg/ml, 0.01 μg/ml and 0.001 μg/ml): no observed activity | cancer cell lines that responded, percent of 41 ([1]; 1 μg/ml, more than 70% growth inhibition): 2% | cancer cell lines in which active, percent of 41 ([1]; 10 μg/ml): 56% | selectivity (individual IC70<½ mean IC70), fraction of cell lines ([1]; breast (mammary) cancer cell lines): ¼ | selectivity (individual IC70<½ mean IC70), fraction of cell lines ([1]; leukemia cell lines): ¾ | selectivity (individual IC70<½ mean IC70), fraction of cell lines ([1]; melanoma cell lines): 2/7 | fold less potent compared to sodium meta-arsenite, IC50 ([1]; on the basis of μM): 17 fold | fold less potent compared to sodium meta-arsenite, IC70 ([1]; on the basis of μM): 12 fold | fold less potent compared to sodium meta-arsenite, IC50 ([1]; on μg/ml): 27 fold | fold less potent compared to sodium meta-arsenite, IC70 ([1]; on μg/ml): 18 fold | Mean IC50 [1, 6]: 3.462 µg/mL | Mean IC70 [1, 6]: 6.022 μg/ml and 30.44 μM | Mean IC90 [1, 6]: 10.307 µg/mL | Mean IC70 ([1]; panel of 41 human cancer cell lines, listed as arsenic trioxide): 6.022 μg/ml and 30.44 μM | IC50 ([1]; read-out: Mean IC50, panel of 41 human cancer cell lines): 17.5 µM | IC90 ([1]; read-out: Mean IC90, panel of 41 human cancer cell lines): 52.1 µM | LD50 [2]: 15.1 mg/kg | BW loss % (day) ([3]; 3 mg/kg i.p.): +8.4 (14) % | Drug-related deaths ([3]; 3 mg/kg i.p.): 0/4 | Rating ([3]; 3 mg/kg i.p.): + (+T/C < 50) | SGD (specific growth delay) ([3]; 3 mg/kg i.p.): −0.1 | T/C % ([3]; 3 mg/kg i.p.): 31% | BW loss % (day) ([3]; 10 mg/kg i.p.): −5.0 (11) % | Drug-related deaths ([3]; 10 mg/kg i.p.): 1/4 | Rating ([3]; 10 mg/kg i.p.): + (+T/C < 50) | SGD (specific growth delay) ([3]; 10 mg/kg i.p.): −0.2 | T/C % ([3]; 10 mg/kg i.p.): 41% | BW loss % (day) [3, 7]: 5% | Drug-related deaths [3, 7]: one (1) out of four (4) mice died | Drug-related deaths ([3]; 30 mg/kg i.p.): 4/4 | Drug-related deaths ([3]; 30 mg/kg i.p., listed as arsenic trioxide): died within a few days after the first injection | Maximum Tolerated Dose (MTD) ([3]; i.p. once daily on days 0, 7 and 14, RXF 944LX bearing nude mice): 10 mg/kg/day | Solubility [4]: sparingly and extremely slowly soluble | BW loss % (day) ([5]; 2 mg/kg i.p.): +9 (34) % | Drug-related deaths ([5]; 2 mg/kg i.p.): 0/8 | T/C % ([5]; 2 mg/kg i.p.): 71% | BW loss % (day) ([5]; 4 mg/kg i.p.): +10 (34) % | Drug-related deaths ([5]; 4 mg/kg i.p.): 0/8 | T/C % ([5]; 4 mg/kg i.p.): 97% | BW loss % (day) ([5]; 6 mg/kg i.p.): +10 (34) % | Drug-related deaths ([5]; 6 mg/kg i.p.): 0/8 | T/C % ([5]; 6 mg/kg i.p.): 58% | MTD ([5]; small dose finding studies prior to the ALL-SCID 4 study): 6 mg/kg/day
